Reference: PubChem BioAssay AID1259407 (Chemical Carcinogenesis Research Information System (CCRIS), 2018)
Activity calls are given as the source filed them. How the calls were made is not given here.

System: CCRIS mutagenicity, Ames/micronucleus/aberration tests
Experiment: CCRIS mutagenicity studies
[1] = Test System: AMES SALMONELLA TYPHIMURIUM, Strain/Indicator: TA97, Metabolic Activation: NONE, Method: PREINCUBATION
[2] = Test System: AMES SALMONELLA TYPHIMURIUM, Strain/Indicator: TA97, Metabolic Activation: RAT, LIVER, S-9, AROCLOR 1254 (10 OR 30%), Method: PREINCUBATION
[3] = Test System: AMES SALMONELLA TYPHIMURIUM, Strain/Indicator: TA98, Metabolic Activation: NONE, Method: PREINCUBATION
[4] = Test System: AMES SALMONELLA TYPHIMURIUM, Strain/Indicator: TA100, Metabolic Activation: NONE, Method: PREINCUBATION
[5] = Test System: AMES SALMONELLA TYPHIMURIUM, Strain/Indicator: TA1535, Metabolic Activation: NONE, Method: PREINCUBATION
[6] = Test System: AMES SALMONELLA TYPHIMURIUM, Strain/Indicator: TA1535, Metabolic Activation: RAT, LIVER, S-9, AROCLOR 1254 (10 OR 30%), Method: PREINCUBATION

For `N#C/C=C/C#N`, the mutagenic call (End Point: IN VITRO CHROMOSOMAL ABERRATIONS, Test System: CHO-LB CELLS, Metabolic Activation: NONE) was “active; positive”, the mutagenic call (End Point: IN VITRO CHROMOSOMAL ABERRATIONS, Test System: CHO-LB CELLS, Metabolic Activation: RAT, LIVER, S-9, AROCLOR 1254) was “inactive; negative” and the mutagenic call (Test System: AMES SALMONELLA TYPHIMURIUM, Strain/Indicator: TA97, Metabolic Activation: HAMSTER, LIVER, S-9, AROCLOR 1254 (10%), Method: PREINCUBATION) was “inactive; negative”. The mutagenic call (Test System: AMES SALMONELLA TYPHIMURIUM, Strain/Indicator: TA97, Metabolic Activation: HAMSTER, LIVER, S-9, AROCLOR 1254 (30%), Method: PREINCUBATION) was “inactive; negative”, the mutagenic call [1] was “inactive; negative” and the mutagenic call [2] was “inactive; negative”. For the same compound, the mutagenic call (Test System: AMES SALMONELLA TYPHIMURIUM, Strain/Indicator: TA98, Metabolic Activation: HAMSTER, LIVER, S-9, AROCLOR 1254 (10%), Method: PREINCUBATION) was “inactive; negative”, the mutagenic call (Test System: AMES SALMONELLA TYPHIMURIUM, Strain/Indicator: TA98, Metabolic Activation: HAMSTER, LIVER, S-9, AROCLOR 1254 (30%), Method: PREINCUBATION) was “inactive; negative” and the mutagenic call [3] was “inactive; negative”. The mutagenic call (Test System: AMES SALMONELLA TYPHIMURIUM, Strain/Indicator: TA98, Metabolic Activation: RAT, LIVER, S-9, AROCLOR 1254 (10%), Method: PREINCUBATION) was “inactive; negative”, the mutagenic call (Test System: AMES SALMONELLA TYPHIMURIUM, Strain/Indicator: TA98, Metabolic Activation: RAT, LIVER, S-9, AROCLOR 1254 (30%), Method: PREINCUBATION) was “inactive; negative” and the mutagenic call (Test System: AMES SALMONELLA TYPHIMURIUM, Strain/Indicator: TA98, Metabolic Activation: RAT, LIVER, S-9, FUMARONITRILE (AUTOINDUCTION), Method: PREINCUBATION) was “inactive; negative”. For the same compound, the mutagenic call (Test System: AMES SALMONELLA TYPHIMURIUM, Strain/Indicator: TA98, Metabolic Activation: RAT, LIVER, S-9, PHENOBARBITAL, Method: PREINCUBATION) was “inactive; negative”, the mutagenic call (Test System: AMES SALMONELLA TYPHIMURIUM, Strain/Indicator: TA100, Metabolic Activation: HAMSTER, LIVER, S-9, AROCLOR 1254 (10%), Method: PREINCUBATION) was “inactive; negative” and the mutagenic call (Test System: AMES SALMONELLA TYPHIMURIUM, Strain/Indicator: TA100, Metabolic Activation: HAMSTER, LIVER, S-9, AROCLOR 1254 (30%), Method: PREINCUBATION) was “inactive; negative”. The mutagenic call [4] was “inactive; negative”, the mutagenic call (Test System: AMES SALMONELLA TYPHIMURIUM, Strain/Indicator: TA100, Metabolic Activation: RAT, LIVER, S-9, AROCLOR 1254 (10%), Method: PREINCUBATION) was “inactive; negative” and the mutagenic call (Test System: AMES SALMONELLA TYPHIMURIUM, Strain/Indicator: TA100, Metabolic Activation: RAT, LIVER, S-9, AROCLOR 1254 (30%), Method: PREINCUBATION) was “inactive; negative”. The mutagenic call (Test System: AMES SALMONELLA TYPHIMURIUM, Strain/Indicator: TA100, Metabolic Activation: RAT, LIVER, S-9, FUMARONITRILE (AUTOINDUCTION), Method: PREINCUBATION) was “inactive; negative”, the mutagenic call (Test System: AMES SALMONELLA TYPHIMURIUM, Strain/Indicator: TA100, Metabolic Activation: RAT, LIVER, S-9, PHENOBARBITAL, Method: PREINCUBATION) was “inactive; negative” and the mutagenic call (Test System: AMES SALMONELLA TYPHIMURIUM, Strain/Indicator: TA1535, Metabolic Activation: HAMSTER, LIVER, S-9, AROCLOR 1254 (10%), Method: PREINCUBATION) was “inactive; negative”. The mutagenic call (Test System: AMES SALMONELLA TYPHIMURIUM, Strain/Indicator: TA1535, Metabolic Activation: HAMSTER, LIVER, S-9, AROCLOR 1254 (30%), Method: PREINCUBATION) was “inactive; negative”, the mutagenic call [5] was “inactive; negative” and the mutagenic call [6] was “inactive; negative”.
With `CCCCCCC[CH2][Sn]1([CH2]CCCCCCC)[O]C(=O)C=CC(=O)[O]1` the mutagenic call (Test System: AMES SALMONELLA TYPHIMURIUM, Strain/Indicator: TA97, Metabolic Activation: HAMSTER, LIVER, S-9, AROCLOR 1254 (10 OR 30%), Method: PREINCUBATION) was “inactive; negative”, the mutagenic call [1] was “inactive; negative” and the mutagenic call [2] was “inactive; negative”. For the same compound, the mutagenic call (Test System: AMES SALMONELLA TYPHIMURIUM, Strain/Indicator: TA98, Metabolic Activation: HAMSTER, LIVER, S-9, AROCLOR 1254 (10 OR 30%), Method: PREINCUBATION) was “inactive; negative”, the mutagenic call [3] was “inactive; negative” and the mutagenic call (Test System: AMES SALMONELLA TYPHIMURIUM, Strain/Indicator: TA98, Metabolic Activation: RAT, LIVER, S-9, AROCLOR 1254 (10 OR 30%), Method: PREINCUBATION) was “inactive; negative”. For the same compound, the mutagenic call (Test System: AMES SALMONELLA TYPHIMURIUM, Strain/Indicator: TA100, Metabolic Activation: HAMSTER, LIVER, S-9, AROCLOR 1254 (10 OR 30%), Method: PREINCUBATION) was “inactive; negative”, the mutagenic call [4] was “inactive; negative” and the mutagenic call (Test System: AMES SALMONELLA TYPHIMURIUM, Strain/Indicator: TA100, Metabolic Activation: RAT, LIVER, S-9, AROCLOR 1254 (10 OR 30%), Method: PREINCUBATION) was “inactive; negative”. The mutagenic call (Test System: AMES SALMONELLA TYPHIMURIUM, Strain/Indicator: TA1535, Metabolic Activation: HAMSTER, LIVER, S-9, AROCLOR 1254 (10 OR 30%), Method: PREINCUBATION) was “inactive; negative”, the mutagenic call [5] was “inactive; negative” and the mutagenic call [6] was “inactive; negative”.
With `CC(C)CCCCCCOC(=O)c1ccccc1C(=O)OCCCCCCC(C)C` the mutagenic call (Test System: AMES SALMONELLA TYPHIMURIUM, Strain/Indicator: TA98, Metabolic Activation: NONE, Method: STANDARD PLATE) was “inactive; negative”, the mutagenic call (Test System: AMES SALMONELLA TYPHIMURIUM, Strain/Indicator: TA98, Metabolic Activation: RAT LIVER S-9, AROCLOR, Method: STANDARD PLATE) was “inactive; negative” and the mutagenic call (Test System: AMES SALMONELLA TYPHIMURIUM, Strain/Indicator: TA100, Metabolic Activation: NONE, Method: STANDARD PLATE) was “inactive; negative”. For the same compound, the mutagenic call (Test System: AMES SALMONELLA TYPHIMURIUM, Strain/Indicator: TA100, Metabolic Activation: RAT LIVER S-9, AROCLOR, Method: STANDARD PLATE) was “inactive; negative”, the mutagenic call (Test System: AMES SALMONELLA TYPHIMURIUM, Strain/Indicator: TA1535, Metabolic Activation: NONE, Method: STANDARD PLATE) was “inactive; negative” and the mutagenic call (Test System: AMES SALMONELLA TYPHIMURIUM, Strain/Indicator: TA1535, Metabolic Activation: RAT LIVER S-9, AROCLOR, Method: STANDARD PLATE) was “inactive; negative”. The mutagenic call (Test System: AMES SALMONELLA TYPHIMURIUM, Strain/Indicator: TA1537, Metabolic Activation: NONE, Method: STANDARD PLATE) was “inactive; negative”, the mutagenic call (Test System: AMES SALMONELLA TYPHIMURIUM, Strain/Indicator: TA1537, Metabolic Activation: RAT LIVER S-9, AROCLOR, Method: STANDARD PLATE) was “inactive; negative” and the mutagenic call (Test System: AMES SALMONELLA TYPHIMURIUM, Strain/Indicator: TA1538, Metabolic Activation: NONE, Method: STANDARD PLATE) was “inactive; negative”. The mutagenic call (Test System: AMES SALMONELLA TYPHIMURIUM, Strain/Indicator: TA1538, Metabolic Activation: RAT LIVER S-9, AROCLOR, Method: STANDARD PLATE) was “inactive; negative”.
